Assay results published in patent publication US9561231B2 (AbbVie Inc., priority 2012, dated 2017).

Assays:
[1] = target: T1, first (BD1: amino acids K57-E168) bromodomain of BRD4 (Homo sapiens, UniProt O60885); assay: TR-FRET bromodomain binding assay, BRD4 BD1; details: TR-FRET assay protocol (A-G, compound concentration range); Ki calculated from IC50, probe Kd and probe concentration; read-out: TR-FRET Binding Ki: BRD4 (BDI_K57-E168)
T1 construct: His-tagged first (BD1: amino acids K57-E168)
In short: (§1)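 His-tagged BRD4 bromodomain competed against an Alexa647-labeled BET-inhibitor probe by TR-FRET in 20 mM sodium phosphate pH 6.0, 50 mM NaCl, 1 mM EDTA, 0.01% Triton X-100, 1 mM DTT.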

[2] = target: T2, second (BD2: amino acids E352-E168) bromodomain of BRD4 (Homo sapiens, UniProt O60885); assay: TR-FRET bromodomain binding assay, BRD4 BD2; details: TR-FRET assay protocol (A-G, compound concentration range); Ki calculated from IC50, probe Kd and probe concentration; read-out: TR-FRET Binding Ki: BRD4 (BDII_E352-M457)
T2 construct: protocol
In short: as §1

Structure (SMILES)	Ki [1]	Ki [2]
CCOc1cc(=O)n(C)cc1-c1cc(NC(=O)C2CCN(c3ccccc3)C2=O)ccc1Oc1ccc(F)cc1F (stereo not shown) [Example 295, N-[4-(2,4-difluorophenoxy)-3-(4-ethoxy-1-methyl-6-oxo-1,6-dihydropyridin-3-yl)phenyl]-2-oxo-1-phenylpyrrolidine-3-carboxamide]	275 nM	93 nM
CCOc1cc(=O)n(C)cc1-c1cc(NC(=O)CC(C)(C)C)ccc1Oc1ccc(F)cc1F [Example 296, N-[4-(2,4-difluorophenoxy)-3-(4-ethoxy-1-methyl-6-oxo-1,6-dihydropyridin-3-yl)phenyl]-3,3-dimethylbutanamide]	195 nM	104 nM
CCOc1cc(=O)n(C)cc1-c1cc(NC(=O)C2(c3ccccc3)CC2)ccc1Oc1ccc(F)cc1F [Example 299, N-[4-(2,4-difluorophenoxy)-3-(4-ethoxy-1-methyl-6-oxo-1,6-dihydropyridin-3-yl)phenyl]-1-phenylcyclopropanecarboxamide]	149 nM	35.2 nM
CCOc1cc(=O)n(C)cc1-c1cc(NC(=O)c2ccc(OC(C)C)cc2)ccc1Oc1ccc(F)cc1F [Example 301, N-[4-(2,4-difluorophenoxy)-3-(4-ethoxy-1-methyl-6-oxo-1,6-dihydropyridin-3-yl)phenyl]-4-(propan-2-yloxy)benzamide]	61.8 nM	55.6 nM
CCOc1cc(=O)n(C)cc1-c1cc(NC(=O)c2ccccc2CCc2ccccc2)ccc1Oc1ccc(F)cc1F [Example 302, N-[4-(2,4-difluorophenoxy)-3-(4-ethoxy-1-methyl-6-oxo-1,6-dihydropyridin-3-yl)phenyl]-2-(2-phenylethyl)benzamide]	209 nM	47.2 nM
CCOc1cc(=O)n(C)cc1-c1cc(NC(=O)c2ccc(N(CC)CC)cc2)ccc1Oc1ccc(F)cc1F [Example 303, 4-(diethylamino)-N-[4-(2,4-difluorophenoxy)-3-(4-ethoxy-1-methyl-6-oxo-1,6-dihydropyridin-3-yl)phenyl]benzamide]	233 nM	201 nM
CCOc1cc(=O)n(C)cc1-c1cc(NC(=O)c2ccc(-c3ccccc3)cc2)ccc1Oc1ccc(F)cc1F [Example 304, N-[4-(2,4-difluorophenoxy)-3-(4-ethoxy-1-methyl-6-oxo-1,6-dihydropyridin-3-yl)phenyl]biphenyl-4-carboxamide]	195 nM	359 nM
CCOc1cc(=O)n(C)cc1-c1cc(NCC(C)(C)C)ccc1Oc1ccc(F)cc1F [Example 305, 5-{2-(2,4-difluorophenoxy)-5-[(2,2-dimethylpropyl)amino]phenyl}-4-ethoxy-1-methylpyridin-2(1H)-one]	557 nM	271 nM
CCOc1cc(=O)n(C)cc1-c1cc(NCCC(C)(C)C)ccc1Oc1ccc(F)cc1F [Example 306, 5-{2-(2,4-difluorophenoxy)-5-[(3,3-dimethylbutyl)amino]phenyl}-4-ethoxy-1-methylpyridin-2(1H)-one]	542 nM	349 nM
CCOc1cc(=O)n(C)cc1-c1cc(NS(=O)(=O)c2ccc(S(C)(=O)=O)cc2)ccc1Oc1ccc(F)cc1F [Example 307, N-[4-(2,4-difluorophenoxy)-3-(4-ethoxy-1-methyl-6-oxo-1,6-dihydropyridin-3-yl)phenyl]-4-(methylsulfonyl)benzenesulfonamide]	94.9 nM	41.6 nM
CCOc1cc(=O)n(C)cc1-c1cc(NS(=O)(=O)c2ccc(OC(F)(F)F)cc2)ccc1Oc1ccc(F)cc1F [Example 308, N-[4-(2,4-difluorophenoxy)-3-(4-ethoxy-1-methyl-6-oxo-1,6-dihydropyridin-3-yl)phenyl]-4-(trifluoromethoxy)benzenesulfonamide]	318 nM	65.9 nM
CCOc1cc(=O)n(C)cc1-c1cc(NS(=O)(=O)c2ccc(-c3ccccc3)cc2)ccc1Oc1ccc(F)cc1F [Example 309, N-[4-(2,4-difluorophenoxy)-3-(4-ethoxy-1-methyl-6-oxo-1,6-dihydropyridin-3-yl)phenyl]biphenyl-4-sulfonamide]	359 nM	151 nM
CCOc1cc(=O)n(C)cc1-c1cc(NS(=O)(=O)C[C@]23CC[C@H](CC2=O)C3(C)C)ccc1Oc1ccc(F)cc1F [Example 310, N-[4-(2,4-difluorophenoxy)-3-(4-ethoxy-1-methyl-6-oxo-1,6-dihydropyridin-3-yl)phenyl]-1-[(1S,4R)-7,7-dimethyl-2-oxobicyclo[2.2.1]hept-1-yl]methanesulfonamide]	200 nM	38.9 nM
Cc1cc(-c2ccc(-c3ccc(=O)n(C)c3)c(OCC3CC3)c2)[nH]n1 [Example 312, 5-[2-(cyclopropylmethoxy)-4-(3-methyl-1H-pyrazol-5-yl)phenyl]-1-methylpyridin-2(1H)-one]	353 nM	2150 nM
CCS(=O)(=O)c1ccc(Oc2ccccc2C#CCO)c(-c2cn(C)c(=O)cc2Cl)c1 [Example 314, 4-chloro-5-{5-(ethylsulfonyl)-2-[2-(3-hydroxyprop-1-yn-1-yl)phenoxy]phenyl}-1-methylpyridin-2(1H)-one]	642 nM	229 nM
CCS(=O)(=O)c1ccc(Oc2ccc(F)cc2F)c(-c2cn(C)c(=O)cc2Oc2ccc(F)cc2F)c1 [Example 317, 4-(2,4-difluorophenoxy)-5-[2-(2,4-difluorophenoxy)-5-(ethylsulfonyl)phenyl]-1-methylpyridin-2(1H)-one]	377 nM	182 nM
CCS(=O)(=O)Nc1ccc(Oc2ccc(OC3CCN(C(=O)OC(C)(C)C)CC3)cc2F)c(-c2cn(C)c(=O)cc2OC2CCN(C(=O)OC(C)(C)C)CC2)c1 [Example 320, tert-butyl 4-[(5-{2-(4-{[1-(tert-butoxycarbonyl)piperidin-4-yl]oxy}-2-fluorophenoxy)-5-[(ethylsulfonyl)amino]phenyl}-1-methyl-2-oxo-1,2-dihydropyridin-4-yl)oxy]piperidine-1-carboxylate]	> 2380 nM	275 nM
CCO/C=C/c1cc(=O)n(C)cc1-c1cc(S(C)(=O)=O)ccc1NCC1CC1 [Example 327, 5-{2-[(cyclopropylmethyl)amino]-5-(methylsulfonyl)phenyl}-4-[(E)-2-ethoxyethenyl]-1-methylpyridin-2(1H)-one]	680 nM	1110 nM
CCS(=O)(=O)Nc1ccc(Oc2ccc(F)cc2F)c(-c2cn(C)c(=O)cc2-c2ccccc2O)c1 [Example 331, N-{4-(2,4-difluorophenoxy)-3-[4-(2-hydroxyphenyl)-1-methyl-6-oxo-1,6-dihydropyridin-3-yl]phenyl}ethanesulfonamide]	164 nM	551 nM
CCS(=O)(=O)Nc1ccc(Oc2ccc(F)cc2F)c(-c2cn(C)c(=O)cc2-c2cscc2C=O)c1 [Example 332, N-{4-(2,4-difluorophenoxy)-3-[4-(4-formylthiophen-3-yl)-1-methyl-6-oxo-1,6-dihydropyridin-3-yl]phenyl}ethanesulfonamide]	1010 nM	205 nM
CCO/C=C\c1cc(=O)n(C)cc1-c1cc(S(C)(=O)=O)ccc1NCC1CC1 [Example 337, 5-{2-[(cyclopropylmethyl)amino]-5-(methylsulfonyl)phenyl}-4-[(Z)-2-ethoxyethenyl]-1-methylpyridin-2(1H)-one]	611 nM	1830 nM
CCOC(=O)Nc1cc(-c2cc(S(=O)(=O)CC)ccc2OCC2CC2)cn(C)c1=O [Example 338, ethyl{5-[2-(cyclopropylmethoxy)-5-(ethylsulfonyl)phenyl]-1-methyl-2-oxo-1,2-dihydropyridin-3-yl}carbamate]	114 nM	702 nM
CCS(=O)(=O)c1ccc(OCC2CC2)c(-c2cc(NS(C)(=O)=O)c(=O)n(C)c2)c1 [Example 339, N-{5-[2-(cyclopropylmethoxy)-5-(ethylsulfonyl)phenyl]-1-methyl-2-oxo-1,2-dihydropyridin-3-yl}methanesulfonamide]	172 nM	971 nM
Cn1cc(-c2cc(S(C)(=O)=O)ccc2NCC2CC2)c(OC(C)(C)C(C)(C)O)cc1=O [Example 341, 5-{2-[(cyclopropylmethyl)amino]-5-(methylsulfonyl)phenyl}-4-[(3-hydroxy-2,3-dimethylbutan-2-yl)oxy]-1-methylpyridin-2(1H)-one]	> 2380 nM	> 4080 nM
CCOc1cc(=O)n(C)cc1-c1cc(NS(=O)(=O)c2ccc(Cl)cc2F)ccc1Oc1ccc(F)cc1F [Example 348, 4-chloro-N-[4-(2,4-difluorophenoxy)-3-(4-ethoxy-1-methyl-6-oxo-1,6-dihydropyridin-3-yl)phenyl]-2-fluorobenzenesulfonamide]	196 nM	63.1 nM
Cc1cccc(OCC2CC2)c1-c1ccc(=O)n(C)c1 [Example 356, 5-[2-(cyclopropylmethoxy)-6-methylphenyl]-1-methylpyridin-2(1H)-one]	1390 nM	752 nM
CCS(=O)(=O)c1ccc(OCC2CC2)c(-c2cc(N)c(=O)n(C)c2)c1 [Example 357, 3-amino-5-[2-(cyclopropylmethoxy)-5-(ethylsulfonyl)phenyl]-1-methylpyridin-2(1H)-one]	159 nM	1420 nM
CCS(=O)(=O)c1ccc(O[C@H]2CC[C@@](C)(OC)CC2)c(-c2ccc(=O)n(C)c2)c1 [Example 360, 5-{5-(ethylsulfonyl)-2-[(cis-4-methoxy-4-methylcyclohexyl)oxy]phenyl}-1-methylpyridin-2(1H)-one]	127 nM	700 nM
CCS(=O)(=O)c1ccc(OCC2CC2)c(-c2cc(NC(C)=O)c(=O)n(C)c2)c1 [Example 361, N-{5-[2-(cyclopropylmethoxy)-5-(ethylsulfonyl)phenyl]-1-methyl-2-oxo-1,2-dihydropyridin-3-yl}acetamide]	600 nM	1170 nM
